Legend:
[1] = system: ALOMY; assay: Pre-emergence herbicidal action against ALOMY; format: in vivo, Alopecurus myosuroides
Outline: (§1)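 Sandy loam pots, seeds covered with soil, then surface-treated with WP or EC formulations at 600–800 l/ha water plus 0.2% wetting agent. Greenhouse, 3 weeks. Percent damage vs untreated controls.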

[2] = system: ALOMY; assay: Post-emergence herbicidal action against ALOMY; format: in vivo, Alopecurus myosuroides; conditions: dosage 20 g/ha, visual assessment about 3 weeks after treatment vs untreated controls
Outline: (§2)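 Herbicidal action is a visual percentage rating (0% = as untreated control, 100% = plants dead) made roughly 3 weeks after treatment. Plants were grown in sandy loam in the greenhouse and treated at the one-leaf stage, 2 to 3 weeks post-sowing. Treatment was a foliar spray of wettable-powder or emulsion-concentrate formulations at 600 to 800 l/ha water plus 0.2% wetting agent.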

[3] = system: PHBPU; assay: Post-emergence herbicidal action against PHBPU; format: in vivo, Pharbitis purpurea; conditions: dosage 20 g/ha
Outline: as §2

[4] = system: ECHCG; assay: Pre-emergence herbicidal action against ECHCG; format: in vivo, Echinochloa crus-galli
Outline: as §1

[5] = system: AVEFA; assay: Pre-emergence herbicidal action against AVEFA; format: in vivo, Avena fatua; conditions: 80 g/ha, pre-emergence
Outline: as §1

[6] = system: SETVI; assay: Post-emergence herbicidal action against SETVI; format: in vivo, Setaria viridis
Outline: as §2

[7] = system: SETVI; assay: Pre-emergence herbicidal action against SETVI; format: in vivo, Setaria viridis; conditions: dosage 80 g/ha
Outline: as §1

[8] = system: POLCO; assay: Post-emergence herbicidal action against POLCO; format: in vivo, Polygonum convolvulus; conditions: dosage 20 g/ha
Protocol: Seeds of monocotyledonous and dicotyledonous weed and crop plants are laid out in sandy loam soil in wood-fiber pots, covered with soil and cultivated in a greenhouse under good growth conditions. 2 to 3 weeks after sowing, the test plants are treated at the one-leaf stage. The compounds of the invention, formulated in the form of wettable powders (WP) or as emulsion concentrates (EC), are then sprayed onto the green parts of the plants in the form of an aqueous suspension or emulsion at a water application rate equivalent to 600 to 800 l/ha, with addition of 0.2% wetting agent. After the test plants have been left to stand in the greenhouse under optimal growth conditions for about 3 weeks, the action of the preparations is assessed visually in comparison to untreated controls (herbicidal action in percent (%): 100% activity=the plants have died, 0% activity=like control plants). […] The tables below illustrate, in an illustrative manner, the post-emergence herbicidal action of the compounds of the invention, the herbicidal activity being stated in percent.

[9] = system: ECHCG; assay: Post-emergence herbicidal action against ECHCG; format: in vivo, Echinochloa crus-galli
Outline: as §2

[10] = system: DIGSA; assay: Pre-emergence herbicidal action against DIGSA; format: in vivo, Digitaria sanguinalis
Outline: as §1

[11] = system: MATIN; assay: Pre-emergence herbicidal action against MATIN; format: in vivo, Matricaria inodora
Outline: as §1

[12] = system: AMARE; assay: Pre-emergence herbicidal action against AMARE; format: in vivo, Amaranthus retroflexus
Outline: as §1

[13] = system: PHBPU; assay: Pre-emergence herbicidal action against PHBPU; format: in vivo, Pharbitis purpurea; conditions: dosage 80 g/ha
Outline: as §1

[14] = system: ABUTH; assay: Pre-emergence herbicidal action against ABUTH; format: in vivo, Abutilon theophrasti; conditions: for Pre-emergence action against ABUTH (herbicidal activity): 80 g/ha, scored visually after 3 weeks vs untreated controls (100% = plants have died, 0% = like control plants); for Pre-emergence action against ABUTH (herbicidal activity in percent): dosage 20 g/ha, scored visually after 3 weeks vs untreated controls, 100% = plants have died, 0% = like control plants
Outline: as §1

[15] = system: MATIN; assay: Post-emergence herbicidal action against MATIN; format: in vivo, Matricaria inodora
Outline: as §2

[16] = system: POLCO; assay: Pre-emergence herbicidal action against POLCO; format: in vivo, Polygonum convolvulus; conditions: dosage 80 g/ha
Outline: as §1

[17] = system: VIOTR; assay: Post-emergence herbicidal action against VIOTR; format: in vivo, Viola tricolor
Outline: as §2

[18] = system: VIOTR; assay: Pre-emergence herbicidal action against VIOTR; format: in vivo, Viola tricolor
Outline: as §1

[19] = system: VERPE; assay: Pre-emergence herbicidal action against VERPE; format: in vivo, Veronica persica; conditions: dosage 80 g/ha
Outline: as §1

[20] = system: DIGSA; assay: Post-emergence herbicidal action against DIGSA; format: in vivo, Digitaria sanguinalis
Outline: as §2

[21] = system: AMARE; assay: Post-emergence herbicidal action against AMARE; format: in vivo, Amaranthus retroflexus; conditions: 20 g/ha, visual assessment about 3 weeks after treatment, 100% = plants have died, 0% = like control plants
Outline: as §2

[22] = system: ABUTH; assay: Post-emergence herbicidal action against ABUTH; format: in vivo, Abutilon theophrasti; conditions: visual assessment about 3 weeks after treatment vs untreated controls
Outline: as §2

[23] = system: VERPE; assay: Post-emergence herbicidal action against VERPE; format: in vivo, Veronica persica; conditions: 20 g/ha
Outline: as §2

[24] = 20 g/ha, scored visually after 3 weeks vs untreated controls, 100% = plants have died, 0% = like control plants
[25] = 80 g/ha, scored visually after 3 weeks vs untreated controls (100% = plants have died, 0% = like control plants)

Q: Which results are given for `CCn1nnnc1NC(=O)c1ccc(Br)c(C(=O)NCC2CC2)c1Cl` [Example 2-180]?
A: Pre-emergence action against ALOMY ([1]; 20 g/ha, scored visually after 3 weeks, 100% = plants have died, 0% = like control plants): 80%; Pre-emergence action against ALOMY (herbicidal activity) ([1]; 80 g/ha, pre-emergence, scored visually after 3 weeks vs untreated controls (100% = plants have died, 0% = like control plants)): 100%; Post-emergence action against ALOMY in % [2]: 90%; Post-emergence action against PHBPU in % [3]: 90%; Pre-emergence action against ECHCG in % ([4]; 80 g/ha): 100%; Pre-emergence action against AVEFA in % [5]: 80%; Post-emergence action against SETVI in % ([6]; dosage 20 g/ha): 90%; Pre-emergence action against SETVI in % [7]: 100%; Post-emergence action against POLCO in % [8]: 100%; Post-emergence action against ECHCG in % ([9]; dosage 20 g/ha): 90%; Pre-emergence action against DIGSA in % ([10]; dosage 20 g/ha): 100%; Pre-emergence action against DIGSA in % ([10]; dosage 80 g/ha): 100%; Pre-emergence action against MATIN in % ([11]; dosage 20 g/ha): 100%; Pre-emergence action against MATIN in % ([11]; dosage 80 g/ha): 100%; Pre-emergence action against AMARE in % [12, 24]: 100%; Pre-emergence action against AMARE in % [12, 25]: 100%; Pre-emergence action against PHBPU in % [13]: 100%; Pre-emergence action against ABUTH (herbicidal activity) [14]: 100%; Pre-emergence action against ABUTH (herbicidal activity in percent) [14]: 100%; Post-emergence action against MATIN in % ([15]; dosage 20 g/ha): 80%; Pre-emergence action against POLCO in % [16]: 90%; Post-emergence action against VIOTR in % ([17]; 20 g/ha): 100%; Pre-emergence action against VIOTR in % ([18]; dosage 20 g/ha): 100%; Pre-emergence action against VIOTR in % ([18]; dosage 80 g/ha): 100%

Q: For `CCNC(=O)c1c(C(F)F)ccc(C(=O)Nc2nnnn2CC)c1C1CC1` [Example 2-305], which “Post-emergence action against PHBPU in %” value [3] is on record?
A: Its value is 90%.

Q: What about the “Pre-emergence action against ECHCG in %” value ([4]; 20 g/ha) of the same compound?
A: The value was 80%.

Q: What about the “Pre-emergence action against ECHCG in %” value ([4]; 80 g/ha) of the same compound?
A: Its value is 100%.

Q: What about the “Post-emergence action against SETVI in %” value ([6]; dosage 5 g/ha) of the same compound?
A: The value was 90%.

Q: What about the “Post-emergence action against SETVI in %” value ([6]; dosage 20 g/ha) of the same compound?
A: Its value is 90%.

Q: And the “Pre-emergence action against SETVI in %” value [7]?
A: The value was 80%.

Q: And the “Pre-emergence action against VERPE in %” value [19]?
A: The value was 100%.

Q: What about the “Post-emergence action against POLCO in %” value [8] of the same compound?
A: The value was 100%.

Q: And the “Post-emergence action against DIGSA in %” value ([20]; 5 g/ha)?
A: Its value is 80%.

Q: And the “Post-emergence action against DIGSA” value ([20]; 20 g/ha)?
A: Its value is 90%.

Q: What about the “Post-emergence action against ECHCG in %” value ([9]; dosage 5 g/ha) of the same compound?
A: The value was 90%.

Q: What about the “Post-emergence action against ECHCG in %” value ([9]; dosage 20 g/ha) of the same compound?
A: Its value is 90%.

Q: What about the “Pre-emergence action against DIGSA in %” value ([10]; dosage 20 g/ha) of the same compound?
A: The value was 100%.

Q: What about the “Pre-emergence action against DIGSA in %” value ([10]; dosage 80 g/ha) of the same compound?
A: Its value is 100%.

Q: And the “Post-emergence action at 20 g/ha against AMARE in %” value [21]?
A: Its value is 100%.

Q: And the “Post-emergence action against ABUTH in %” value ([22]; dosage 5 g/ha)?
A: The value was 80%.

Q: What about the “Post-emergence action against ABUTH in %” value ([22]; dosage 20 g/ha) of the same compound?
A: The value was 90%.

Q: And the “Pre-emergence action against MATIN in %” value ([11]; dosage 20 g/ha)?
A: Its value is 100%.

Q: What about the “Pre-emergence action against MATIN in %” value ([11]; dosage 80 g/ha) of the same compound?
A: The value was 100%.

Q: And the “Pre-emergence action against AMARE in %” value [12, 24]?
A: Its value is 100%.

Q: What about the “Pre-emergence action against AMARE in %” value [12, 25] of the same compound?
A: The value was 100%.

Q: What about the “Pre-emergence action against PHBPU in %” value [13] of the same compound?
A: The value was 90%.

Q: What about the “Pre-emergence action against ABUTH (herbicidal activity)” value [14] of the same compound?
A: Its value is 100%.

Q: And the “Pre-emergence action against ABUTH (herbicidal activity in percent)” value [14]?
A: Its value is 100%.

Q: What about the “Post-emergence action against MATIN in %” value ([15]; dosage 5 g/ha) of the same compound?
A: Its value is 80%.

Q: What about the “Post-emergence action against MATIN in %” value ([15]; dosage 20 g/ha) of the same compound?
A: The value was 90%.

Q: What about the “Post-emergence action against VIOTR in %” value ([17]; 5 g/ha) of the same compound?
A: The value was 80%.

Q: And the “Post-emergence action against VIOTR in %” value ([17]; 20 g/ha)?
A: Its value is 90%.

Q: And the “Pre-emergence action against VIOTR in %” value ([18]; dosage 20 g/ha)?
A: Its value is 90%.

Q: What about the “Pre-emergence action against VIOTR in %” value ([18]; dosage 80 g/ha) of the same compound?
A: The value was 100%.

Q: And the “Post-emergence action against VERPE in %” value [23]?
A: Its value is 90%.
